Test [1] concerns the target Human Cortex or Human recombinant 5-HT2A (Homo sapiens (Human), UniProt P28223). As to the kind of experiment: Serotonin 5HT2A radioligand binding assay.
A further test deals with Human recombinant 5-HT1A (Homo sapiens (Human), UniProt P08908). As to the kind of experiment: Serotonin 5HT1A radioligand binding assay.
A further test has as its target Human recombinant D2S (Homo sapiens (Human), UniProt P14416). As to the kind of experiment: Dopamine D2S radioligand binding assay.
For the next test, the target named is Human recombinant 5-HT7 (Homo sapiens (Human), UniProt P34969). Put plainly: Serotonin 5HT7 radioligand binding assay.
Test [2] deals with monocrotaline-induced pulmonary arterial hypertension (PAH) in rats. Put plainly: Monocrotaline (MCT) induced pulmonary arterial hypertension rat model. The settings on record: for Body Weight gain / Diastolic pulmonary pressure / Lung weight / Mean pulmonary pressure / Oxygen saturation / Respiratory resistance / Right systolic ventricular pressure / Systolic pulmonary pressure: MCT rat, Day 0 to Day 27, Day 28. In kind it is in vivo. From the text:
The purpose of this study was to assess the effect of the test articles on the monocrotaline-induced pulmonary arterial hypertension (PAH) in rats. The assay was designed to measure the pulmonary and systemic arterial blood pressures in anaesthetized rats with PAH induced by a single subcutaneous dose of monocrotaline. The results of the study are a quantitative measurement of the progression of the disease and its effects on the pulmonary arterial blood pressure (PAP), as well as wet organ weight in rats with induced PAH with and without treatment with test article or reference compound. Furthermore, a detailed morphometric and clinical investigation of the histology of the pulmonary vasculature was performed to correlate vascular remodeling with the functional impact of the onset of the PAH.
Male Wistar-Kyoto rats (Charles River Laboratories) weighing between 200 and 250 grams (approximately 10-12 week-old) were randomized across experimental groups, according to their body weight, with the aim of scheduling one animal per treatment group for each day of terminal surgery (when possible). […] Rats from treatment groups 2 to 4 received one subcutaneous injection of monocrotaline (MCT) solution (60 mg/kg) in DMSO on Day 0 and were returned to their cages. Rats from control group 1 received one subcutaneous injection of DMSO (vehicle for monocrotaline) on Day 0 and were returned to their respective cages. […] Food and water were given ad libitum. Daily observations of the behavior and general health status of the animals were done. Weekly blood draw, body weight and body temperature were taken.
On the day of surgery, the rats were anaesthetized, instrumented and hemodynamic parameters (systemic arterial blood pressure, right ventricular blood pressure, pulmonary arterial blood pressure, oxygen saturation, respiratory resistance, ventilatory pressure, respiration rate and heart rate) were recorded continuously for 5 minutes or until loss of quality in the pulmonary arterial pressure signal, whichever came first. The recordings included moving the pressure transducer from the right ventricular cavity to the pulmonary artery and back, observing the very clear transitions in diastolic pressures and general pressure waveforms as the catheter entered the artery, and was withdrawn into the ventricle. The rats were then exsanguinated and the pulmonary circulation was flushed with 0.9% NaCl. The trachea, lungs and heart were removed as a whole from the thoracic cavity. The right and left lobes of the lung were weighed before being perfused with 10% NBF and immersed in 10% formalin. The lungs were stored in 10% formalin at room temperature. The heart was excised to measure the wet weights of the right ventricle (RV) and left ventricle including the septum (LV-S) as part of the Fulton index calculation. Arterial blood pressure was recorded continuously throughout the experiment via an intra-arterial fluid-filled catheter (AD Instruments, Colorado Springs, Colo., USA). Diastolic and systolic pressures values were measured in mmHg using cursors readings in the Clampfit 10.2.0.14. Mean arterial blood pressure values were calculated using the following formula:
[formula] Values are presented as means±SEM (standard error of the means). Repeat unpaired Student's t-tests were performed in Microsoft Excel 2007 on all experimental conditions, comparing treatment groups to either the control, healthy animals, or the negative control animals (monocrotaline only). Differences were considered significant when p≤0.05. The study results are described in Table 2.

Test [3] concerns Sugen-Hypoxia (SuHx) induced pulmonary arterial hypertension (PAH) in rats. Put plainly: Sugen-hypoxia (SuHx) induced pulmonary arterial hypertension rat model. Conditions: for Body Weight gain / Diastolic pulmonary pressure / Lung weight / Mean pulmonary pressure / Oxygen saturation / Respiratory resistance / Right systolic ventricular pressure / Systolic pulmonary pressure: SuHx rat, Day 14 to Day 34, Day 35. Format: in vivo. From the text: The assay was designed to measure the pulmonary arterial blood pressures in anaesthetized rats with PAH induced by a single subcutaneous dose of Sugen combined with three weeks in hypoxia. Combined with a macroscopic and morphometric histological examination of the tissues harvested from the animals, the results of the provide a quantitative measurement of the progression of the disease on the systemic arterial blood pressure, pulmonary arterial blood pressure, as well as wet organ weight and vascular remodeling in rats with SuHx-induced PAH treated with test article, vehicle, or reference compound.
Male Wistar-Kyoto rats (Charles River Laboratories) weighing between 200 and 250 grams (approximately 10-12 week-old) were randomized across experimental groups according to their body weight, with the aim of scheduling one rat per treatment group for each day of terminal surgery (when possible). […] Rats from Groups 2 to 4 (see Table 3) received a single subcutaneous injection of sugen (20 mg/kg) in DMSO on Day 0 and returned to their cages. Rats from Group 1 received one subcutaneous injection of DMSO (vehicle for sugen) on Day 0 and returned to their respective cages. Groups 2-4 were placed in cages for which the controlled air was adjusted to receive a FiO2 equivalent to 0.10 (10%) using a mixture of nitrogen and ambient air controlled by the ventilated cage system. They were kept under these hypoxic conditions for 21 days. While in hypoxia, cages were cleaned and changed every 48 hours, exposing the animals to ambient oxygen levels for less than 5 minutes per cleaning session. The animals were then exposed to ambient oxygen levels from Day 22 to Day 35. Group 1 animals remained in cages exposed to ambient oxygen levels for 35 days. The animals were observed on a daily basis for any changes in their behavior and general health status. […] Food and water were given ad libitum. Daily observation of the behavior and general health status of the animals was done. Weekly blood draws and body weights were taken. On the day of surgery, the rats were anaesthetized, instrumented and hemodynamic parameters (systemic arterial blood pressure, right ventricular blood pressure, pulmonary arterial blood pressure, oxygen saturation, respiratory resistance, ventilatory pressure, respiration rate and heart rate) were recorded continuously for 5 minutes or until loss of quality in the pulmonary arterial pressure signal, whichever came first. The recordings included moving the pressure transducer from the right ventricular cavity to the pulmonary artery and back, observing the very clear transitions in diastolic pressures and general pressure waveforms as the catheter entered the artery, and was withdrawn into the ventricle. The rats were then exsanguinated and the pulmonary circulation was flushed with 0.9% NaCl. The trachea, lungs and heart were removed as a whole from the thoracic cavity. The right and left lobes of the lung were weighed before being perfused with 10% NBF and immersed in 10% formalin. The lungs were stored in 10% formalin at room temperature. The heart was excised to measure the wet weights of the right ventricle (RV) and left ventricle including the septum (LV-S) as part of the Fulton index calculation.
Mean arterial blood pressure values and Fulton's index were calculated using the following formula as described above in Example 2. The study results are described in Table 4.

For a further test, the target named is Human recombinant 5-HT2B (Homo sapiens (Human), UniProt P41595). Put plainly: Serotonin 5HT2B radioligand binding assay.
The target in a further test is Human recombinant 5-HT6 (Homo sapiens (Human), UniProt P50406). Put plainly: Serotonin 5HT6 radioligand binding assay.

The record followed here is US10441590B2, “Methods for treating pulmonary hypertension” (Reviva Pharmaceuticals, Inc., priority 2015, dated 2019).

Counter-ions that a name gives are not always drawn. Like-named read-outs stand apart in the source and are kept apart here.

Human Cortex or Human recombinant 5-HT2A, sequence (P28223 whole entry): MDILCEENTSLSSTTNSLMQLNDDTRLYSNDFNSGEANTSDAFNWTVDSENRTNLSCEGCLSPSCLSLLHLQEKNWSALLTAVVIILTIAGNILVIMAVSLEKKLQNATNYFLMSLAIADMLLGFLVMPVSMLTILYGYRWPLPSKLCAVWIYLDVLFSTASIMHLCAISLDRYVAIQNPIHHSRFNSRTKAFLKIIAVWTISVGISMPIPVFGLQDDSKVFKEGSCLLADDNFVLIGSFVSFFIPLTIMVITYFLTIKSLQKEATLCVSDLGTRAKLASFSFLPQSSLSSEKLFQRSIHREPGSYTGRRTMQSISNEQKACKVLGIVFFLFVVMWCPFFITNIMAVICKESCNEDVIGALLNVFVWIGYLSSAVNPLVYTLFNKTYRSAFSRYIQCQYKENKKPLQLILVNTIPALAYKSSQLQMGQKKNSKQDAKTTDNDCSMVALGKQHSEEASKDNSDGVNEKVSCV
Human recombinant 5-HT2B, sequence (P41595 whole entry): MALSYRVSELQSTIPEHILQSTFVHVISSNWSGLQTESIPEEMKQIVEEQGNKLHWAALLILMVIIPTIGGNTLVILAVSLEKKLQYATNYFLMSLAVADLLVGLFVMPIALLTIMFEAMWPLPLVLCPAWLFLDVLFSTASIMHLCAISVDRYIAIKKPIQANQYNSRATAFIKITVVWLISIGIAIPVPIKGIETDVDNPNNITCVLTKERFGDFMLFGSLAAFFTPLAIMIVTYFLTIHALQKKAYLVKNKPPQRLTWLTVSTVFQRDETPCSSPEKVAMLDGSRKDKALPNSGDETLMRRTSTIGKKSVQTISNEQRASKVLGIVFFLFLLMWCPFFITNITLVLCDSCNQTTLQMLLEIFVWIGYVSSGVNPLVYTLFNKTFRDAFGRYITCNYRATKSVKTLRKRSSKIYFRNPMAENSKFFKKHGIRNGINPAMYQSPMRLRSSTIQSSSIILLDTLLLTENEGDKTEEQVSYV
Human recombinant 5-HT7, sequence (P34969 whole entry): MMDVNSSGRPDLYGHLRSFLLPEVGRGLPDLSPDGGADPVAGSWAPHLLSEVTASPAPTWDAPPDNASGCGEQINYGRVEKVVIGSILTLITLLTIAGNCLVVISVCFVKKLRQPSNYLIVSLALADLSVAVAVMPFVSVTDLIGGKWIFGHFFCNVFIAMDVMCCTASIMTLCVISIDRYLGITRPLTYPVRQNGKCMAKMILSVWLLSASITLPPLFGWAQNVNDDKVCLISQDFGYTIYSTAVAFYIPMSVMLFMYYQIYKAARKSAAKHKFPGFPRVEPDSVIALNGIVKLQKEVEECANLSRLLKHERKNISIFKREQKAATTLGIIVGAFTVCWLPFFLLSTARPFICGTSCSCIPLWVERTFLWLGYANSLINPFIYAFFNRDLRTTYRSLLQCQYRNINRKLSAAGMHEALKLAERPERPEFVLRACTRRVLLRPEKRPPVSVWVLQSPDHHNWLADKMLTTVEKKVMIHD
Human recombinant 5-HT6, sequence (P50406 whole entry): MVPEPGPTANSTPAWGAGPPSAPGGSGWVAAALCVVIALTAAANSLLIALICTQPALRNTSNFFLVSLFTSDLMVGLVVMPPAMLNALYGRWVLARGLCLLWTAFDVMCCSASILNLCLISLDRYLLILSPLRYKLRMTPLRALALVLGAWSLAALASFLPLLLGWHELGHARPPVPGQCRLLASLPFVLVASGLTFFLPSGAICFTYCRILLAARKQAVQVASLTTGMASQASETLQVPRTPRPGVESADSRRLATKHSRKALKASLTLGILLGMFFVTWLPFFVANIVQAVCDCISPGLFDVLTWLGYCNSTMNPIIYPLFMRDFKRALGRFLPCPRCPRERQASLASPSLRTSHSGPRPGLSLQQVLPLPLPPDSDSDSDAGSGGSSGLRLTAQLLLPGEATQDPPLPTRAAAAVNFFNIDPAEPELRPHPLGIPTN
Human recombinant D2S, sequence (P14416 other isoform, or with tags, fused parts or gaps): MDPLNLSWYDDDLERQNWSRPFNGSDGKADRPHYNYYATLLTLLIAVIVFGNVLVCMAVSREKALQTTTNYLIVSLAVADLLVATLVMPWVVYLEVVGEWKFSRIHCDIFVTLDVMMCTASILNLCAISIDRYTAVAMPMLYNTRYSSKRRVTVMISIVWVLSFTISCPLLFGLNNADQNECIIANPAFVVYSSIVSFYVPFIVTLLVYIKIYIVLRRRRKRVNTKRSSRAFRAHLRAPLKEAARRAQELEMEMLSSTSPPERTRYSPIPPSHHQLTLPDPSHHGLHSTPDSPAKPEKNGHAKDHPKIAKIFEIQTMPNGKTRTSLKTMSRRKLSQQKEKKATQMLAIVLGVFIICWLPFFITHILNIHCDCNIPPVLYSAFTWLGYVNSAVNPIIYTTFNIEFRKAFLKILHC

Usually Ki stands for the equilibrium dissociation constant of an inhibitor or competing ligand from its target. Take “6-(4-(4-(2-methoxyphenyl)piperazin-1-yl)butoxy)-2H-benzo[b][1,4]oxazin-3(-4H)-one hydrochloride [Compound A]”: the Ki in test [1] is 118 nM; on Human recombinant 5-HT1A, 0.65 nM; at Human recombinant D2S, 0.3 nM.
With `O=C1COc2ccc(OCCCCN3CCN(c4cccc(Cl)c4Cl)CC3)cc2N1` [Compound B, 6-(4-(4-(2,3-dichlorophenyl)piperazin-1-yl)butoxy)-2H-benzo[b][1,4]oxazin-3(4H)-one hydrochloride], the inhibition constant Ki came out at 2.7 nM at Human recombinant 5-HT7; 2.50 nM in test [1] (hydrochloride); 2.5 nM in test [1] (listed as compound B, hydrochloride); 0.19 nM at Human recombinant 5-HT2B; 51 nM at Human recombinant 5-HT6. Further, the “efficacy for PAH” value in test [2] (MCT induced PAH rat model, summary statement) is recorded as “demonstrated efficacy for PAH”; in test [3] (SuHx induced PAH rat model, summary statement) it was “demonstrated efficacy for PAH”. For the same molecule, the “Body Weight gain” value came to 22.9 g in test [2] (3 mg/kg bid oral gavage), 23.1 g in test [2] (10 mg/kg bid oral gavage), 66.7 g in test [3] (10 mg/kg bid oral gavage) and 50.8 g in test [3] (20 mg/kg bid oral gavage). Further, the Diastolic pulmonary pressure turned out to be 19.2 mmHg in test [2] (3 mg/kg bid oral gavage), 14.7 mmHg in test [2] (10 mg/kg bid oral gavage), 15.3 mmHg in test [3] (10 mg/kg bid oral gavage) and 14.7 mmHg in test [3] (20 mg/kg bid oral gavage). Further, the Lung weight stood at 0.86% in test [2] (3 mg/kg bid oral gavage), 0.86% in test [2] (10 mg/kg bid oral gavage), 0.65% in test [3] (10 mg/kg bid oral gavage) and 0.62% in test [3] (20 mg/kg bid oral gavage). Besides, the Mean pulmonary pressure in test [2] (3 mg/kg bid oral gavage) is given as 32.0 mmHg; in test [2] (10 mg/kg bid oral gavage), 24.1 mmHg; in test [3] (10 mg/kg bid oral gavage), 20.9 mmHg; in test [3] (20 mg/kg bid oral gavage), 20.4 mmHg. The Oxygen saturation in test [2] (3 mg/kg bid oral gavage) worked out at 93.5%; in test [2] (10 mg/kg bid oral gavage) it was 96.5%; in test [3] (10 mg/kg bid oral gavage), 95.9%; in test [3] (20 mg/kg bid oral gavage), 96.9%. In addition, the Respiratory resistance in test [2] (3 mg/kg bid oral gavage) is 15.7; in test [2] (10 mg/kg bid oral gavage), 10.7; in test [3] (10 mg/kg bid oral gavage) it was 12.4; in test [3] (20 mg/kg bid oral gavage) it was 11.1. Further, the “Right systolic ventricular pressure” value amounted to 58.4 mmHg in test [2] (3 mg/kg bid oral gavage), 43.1 mmHg in test [2] (10 mg/kg bid oral gavage), 32.8 mmHg in test [3] (10 mg/kg bid oral gavage) and 34.2 mmHg in test [3] (20 mg/kg bid oral gavage). Moreover, the Systolic pulmonary pressure was determined as 57.7 mmHg in test [2] (3 mg/kg bid oral gavage), 43.0 mmHg in test [2] (10 mg/kg bid oral gavage), 32.2 mmHg in test [3] (10 mg/kg bid oral gavage) and 32.0 mmHg in test [3] (20 mg/kg bid oral gavage). In addition, the “severity of PAH (right ventricular hypertrophy, pulmonary artery pressure, respiratory resistance)” value is listed as “decreasing the severity of PAH” in test [2] (MCT, summary statement) and “decreasing the severity of PAH” in test [3] (SuHx, summary statement).
